{"source": "patent US8772321B2", "about": "“Heteroannelated anthraquinone derivatives for inhibiting cancers” (National Defense Medical Center, priority 2008, dated 2014)", "key": {"A498": {"system": "A498", "assay": "NCI 60-cell one dose screen", "assay_type": "cell-based, human", "conditions": "A498 (Renal cancer); 10^−5M", "experimental": "(§1) NSC745885 was studied as a prototype for anti-proliferative activity against human cancer cell lines in NCI Drug Screen Program (Table 1, below). NSC745885 was evaluated in the full panel of human tumor cell lines derived from nine cancer cell types (leukemia, non-small cell lung cancer, colon cancer, CNS cancer, prostate cancer, melanoma, ovarian cancer, renal cancer and breast cancer). Each subpanel uses several cell lines and dose-response curves were drawn against the decadic logarithm (log 10) of the corresponding drug concentrations for each cell line by the subpanel group. They were also evaluated in the 60 cell line panel and anticancer assay was performed in accordance with the protocol of developmental therapeutics program (one dose mean graph). Results for each compound were reported as the proliferation percentage of the treated cells with that of the untreated control cells being 100. For each of these parameters the averaged values of mean graph midpoint (MG_MID) were calculated."}, "DU-145": {"system": "DU-145", "assay": "NCI 60-cell one dose screen", "assay_type": "cell-based, human", "conditions": "DU-145 (Prostate cancer); 10^−5M", "experimental": "as §1"}, "EKVX": {"system": "EKVX", "assay": "NCI 60-cell one dose screen", "assay_type": "cell-based, human", "conditions": "EKVX (Non-small cell lung cancer); 10^−5M", "experimental": "as §1"}, "HCC-2998": {"system": "HCC-2998", "assay": "NCI 60-cell one dose screen", "assay_type": "cell-based, human", "conditions": "HCC-2998 (Colon cancer); 10^−5M", "experimental": "as §1"}, "KM12": {"system": "KM12", "assay": "NCI 60-cell one dose screen", "assay_type": "cell-based, human", "conditions": "KM12 (Colon cancer); 10^−5M", "experimental": "as §1"}, "M14": {"system": "M14", "assay": "NCI 60-cell one dose screen", "assay_type": "cell-based, human", "conditions": "M14 (Melanoma); 10^−5M", "experimental": "as §1"}, "MDA-MB-435": {"system": "MDA-MB-435", "assay": "NCI 60-cell one dose screen", "assay_type": "cell-based, human", "conditions": "MDA-MB-435 (Breast cancer); 10^−5M", "experimental": "as §1"}, "NCI-H226": {"system": "NCI-H226", "assay": "NCI 60-cell one dose screen", "assay_type": "cell-based, human", "conditions": "NCI-H226 (Non-small cell lung cancer); 10^−5M", "experimental": "as §1"}, "NCI-H23": {"system": "NCI-H23", "assay": "NCI 60-cell one dose screen", "assay_type": "cell-based, human", "conditions": "NCI-H23 (Non-small cell lung cancer); 10^−5M", "experimental": "as §1"}, "NCI-H460": {"system": "NCI-H460", "assay": "NCI 60-cell one dose screen", "assay_type": "cell-based, human", "conditions": "NCI-H460 (Non-small cell lung cancer); 10^−5M", "experimental": "as §1"}, "NCI/ADR-RES": {"system": "NCI/ADR-RES", "assay": "NCI 60-cell one dose screen", "assay_type": "cell-based, human", "conditions": "NCI/ADR-RES (Ovarian cancer); 10^−5M", "experimental": "as §1"}, "OVCAR-4": {"system": "OVCAR-4", "assay": "NCI 60-cell one dose screen", "assay_type": "cell-based, human", "conditions": "OVCAR-4 (Ovarian cancer); 10^−5M", "experimental": "as §1"}, "OVCAR-5": {"system": "OVCAR-5", "assay": "NCI 60-cell one dose screen", "assay_type": "cell-based, human", "conditions": "OVCAR-5 (Ovarian cancer); 10^−5M", "experimental": "as §1"}, "OVCAR-8": {"system": "OVCAR-8", "assay": "NCI 60-cell one dose screen", "assay_type": "cell-based, human", "conditions": "OVCAR-8 (Ovarian cancer); 10^−5M", "experimental": "as §1"}, "SF-295": {"system": "SF-295", "assay": "NCI 60-cell one dose screen", "assay_type": "cell-based, human", "conditions": "SF-295 (CNS cancer); 10^−5M", "experimental": "as §1"}, "SF-539": {"system": "SF-539", "assay": "NCI 60-cell one dose screen", "assay_type": "cell-based, human", "conditions": "SF-539 (CNS cancer); 10^−5M", "experimental": "as §1"}, "SK-MEL-28": {"system": "SK-MEL-28", "assay": "NCI 60-cell one dose screen", "assay_type": "cell-based, human", "conditions": "SK-MEL-28 (Melanoma); 10^−5M", "experimental": "as §1"}, "SK-MEL-2": {"system": "SK-MEL-2", "assay": "NCI 60-cell one dose screen", "assay_type": "cell-based, human", "conditions": "SK-MEL-2 (Melanoma); 10^−5M", "experimental": "as §1"}, "UACC-257": {"system": "UACC-257", "assay": "NCI 60-cell one dose screen", "assay_type": "cell-based, human", "conditions": "UACC-257 (Melanoma); 10^−5M", "experimental": "as §1"}, "UO-31": {"system": "UO-31", "assay": "NCI 60-cell one dose screen", "assay_type": "cell-based, human", "conditions": "UO-31 (Renal cancer); 10^−5M", "experimental": "as §1"}, "HL-60(TB)": {"system": "HL-60(TB)", "assay": "NCI 60-cell panel dose-response", "assay_type": "cell-based, human", "conditions": "HL-60(TB) (Leukemia)"}, "HeLa cells [1]": {"system": "HeLa cells", "assay": "Cell cycle profile by FACS", "assay_type": "cell-based, human", "conditions": "dose- and time-dependent", "excerpt": "Cell cycle arrest is an important damage surveillance mechanism. […] Treating the cells with NSC745885 caused 47-58% of cells to arrest in sub-G1, which is indicative of cell death. This effect was dose- and time-dependent (FIG. 3, Panel B)."}, "HeLa cells [2]": {"system": "HeLa cells", "assay": "Autophagy: LC3B-II immunoblot", "assay_type": "cell-based, human", "conditions": "12 hours", "experimental": "Cell lysates were prepared in lysis buffer (100 mM Tris-HCl pH 8.0, 150 mM NaCl, 0.1% SDS, and 1% Triton 100) at 4° C., separated by sodium dodecyl sulfate-polyacrylamide gel electrophoresis (SDS-PAGE), and then transferred onto a polyvinylidine difluoride membrane (Millipore, USA). Proteins were detected using antibodies against alpha actinin (ACTN), proliferating cell nuclear antigen (PCNA), p53, p21, cyclin B1, and cyclin D1 (Santa Cruz Biotechnology, USA), YH2A.X (EP854(2)Y, Epitomics, USA), cleaved caspase 3, cleaved poly(ADP-ribose) polymerase (PARP) and LC3B-II (Cell signaling, USA).\nAltered intracellular localization of LC3B (LC3B-I) and increased electrophoretic mobility of LC3B (LC3B-II) are correlated with recruitment to autophagic membranes and can be used as molecular markers for autophagic activation.\nIn FIG. 5A, HeLa cells were treated with the indicated concentrations of DXR, NSC745885 for 12 hours, and then cell lysates were analyzed by immunoblot using antibodies directed against LC3. The results are representative of three independent experiments."}, "telomerase": {"system": "telomerase", "assay": "PCR-based telomerase assay, TRAP (telomeric repeat amplification protocol)", "assay_type": "biochemical", "excerpt": "Binding of low-molecular weight ligands to quadruplexes was first studied with the classic DNA intercalator ethidium and the telomere sequence T4G4 from Oxytricha. It is apparent that G-quadruplexes, with their unique structural, electrostatic and hydrogen bonding features, are the more likely targets for drug action rather than typical duplex or triplex DNA. […] To evaluate the effects of these derivatives on telomerase inhibition, we used PCR-based telomerase assay and TRAP (telomeric repeat amplification protocol) assay at a compound concentration of 100 μM."}, "OVCAR-3": {"system": "OVCAR-3", "assay": "NCI 60-cell panel dose-response", "conditions": "Homo sapiens, OVCAR-3, read-out: LC50"}}}
{"smiles": "O=C1c2ccccc2C(=O)c2c1ccc1nsnc21", "note": "[NSC745885, anthra[2,1-c][1,2,5]thiadiazole-6,11-dione]", "values": [{"measurement": "proliferation percentage", "setting": "A498", "result": 130.09, "unit": "%"}, {"measurement": "proliferation percentage", "setting": "DU-145", "result": 40.76, "unit": "%"}, {"measurement": "proliferation percentage", "setting": "EKVX", "result": 103.18, "unit": "%"}, {"measurement": "proliferation percentage", "setting": "HCC-2998", "result": "−0.74", "unit": "%"}, {"measurement": "proliferation percentage", "setting": "KM12", "result": 98.60, "unit": "%"}, {"measurement": "proliferation percentage", "setting": "M14", "result": 74.54, "unit": "%"}, {"measurement": "proliferation percentage", "setting": "MDA-MB-435", "result": "−87.88", "unit": "%"}, {"measurement": "proliferation percentage", "setting": "NCI-H226", "result": 97.80, "unit": "%"}, {"measurement": "proliferation percentage", "setting": "NCI-H23", "result": 16.07, "unit": "%"}, {"measurement": "proliferation percentage", "setting": "NCI-H460", "result": 77.41, "unit": "%"}, {"measurement": "proliferation percentage", "setting": "NCI/ADR-RES", "result": "−2.53", "unit": "%"}, {"measurement": "proliferation percentage", "setting": "OVCAR-4", "result": "−94.43", "unit": "%"}, {"measurement": "proliferation percentage", "setting": "OVCAR-5", "result": "−20.07", "unit": "%"}, {"measurement": "proliferation percentage", "setting": "OVCAR-8", "result": "−10.07", "unit": "%"}, {"measurement": "proliferation percentage", "setting": "SF-295", "result": 126.17, "unit": "%"}, {"measurement": "proliferation percentage", "setting": "SF-539", "result": "−47.11", "unit": "%"}, {"measurement": "proliferation percentage", "setting": "SK-MEL-28", "result": 15.47, "unit": "%"}, {"measurement": "proliferation percentage", "setting": "SK-MEL-2", "result": "−73.16", "unit": "%"}, {"measurement": "proliferation percentage", "setting": "UACC-257", "result": "−83.07", "unit": "%"}, {"measurement": "proliferation percentage", "setting": "UO-31", "result": "−79.30", "unit": "%"}, {"measurement": "GI50", "setting": "HL-60(TB)", "result": 160, "unit": "nM"}, {"measurement": "TGI", "setting": "HL-60(TB)", "result": 400, "unit": "nM"}, {"measurement": "cells arrested in sub-G1", "setting": "HeLa cells [1]", "result": "47-58%"}, {"measurement": "LC3B-II fragment formation (autophagic activation)", "setting": "HeLa cells [2]", "result": "LC3B-II fragment formation"}, {"measurement": "telomerase activity (TRAP lane pattern)", "setting": "telomerase; 100 μM, H1299 cell extract", "result": "little different from positive control"}, {"measurement": "telomerase inhibitory activity level", "setting": "telomerase; H1299 cells, TRAP", "result": "activity at the micromolar level"}, {"measurement": "CC50", "setting": "OVCAR-3", "result": 11100, "unit": "nM"}]}
